Measured values reported in patent publication US20160151337A1, “ANNELATED PYRROLES AND THEIR USE AS CRAC INHIBITORS” (Grünenthal GmbH, priority 2013, published 2016).

The molecules below were run against T1, CRAC channel (Homo sapiens, UniProt Q96D31) (assay: HEK Calcium Influx Assay (FLIPR), inhibition of store-operated Ca2+ entry after thapsigargin store depletion). Details: 10 μM compound, HEK293 cells, read-out: % inhib. [@ 10 μM] FLIPR.
T1 construct: endogenous in cells; host or cells: HEK293 (ECACC), untransfected
Type: cell-based
Description: The effect of compounds of the invention on intracellular [Ca^2+] was tested in the HEK293 cell line (ECACC).
HEK293 cells were cultured in DMEM/F12/Glutamax (Gibco) containing 10% FCS (Gibco), and maintained at 37° C., 5% CO2. Cell were split twice a week [3*10^6 (Mon-Thu) and 1*10^6 (Thu-Mon) cells/50 ml medium in 1-175 ZK culture flasks, respectively]. Twenty four hours pre-experiment, cells were seeded on 96 well plates (Poly-D-Lysine 96 well Black/Clear Plate, BD Biocoat REF 356640) at a density of 40,000 cells/well in DMEM/F12 (Gibco) containing 10% FCS (Gibco), and maintained at 37° C., 5% CO2.
Prior to store-depletion, cell culture medium was removed and cells were loaded with the Calcium-sensitive fluorescent dye comprised within the Calcium-4-assay kit (Molecular Devices) in nominally Ca^2+-free HBS buffer (140 mM NaCl, 4 mM KCl, 0.2 mM MgCl2, 11 mM D-glucose, and 10 mM HEPES, pH 7.4) according to manufacturer's instruction for 60 min at 37° C., 5% CO2.
Passive depletion of intracellular Ca^2+-stores was then triggered by employing the SERCA inhibitor thapsigargin (2 μM final) for 10 min in the dark (RT). To prevent immediate Ca^2+-entry via the activated store-operated channels (SOCs), cells were maintained in Ca^2+-free HBS buffer comprising 100 μM EGTA during store-depletion.
Intracellular changes in [Ca^2+] were subsequently monitored with the FLIPR device (Molecular Devices). In brief, baseline imaging post-store depletion was allowed for 1 min before adjusting the extracellular buffer to 3 mM CaCl2. Increases in intracellular [Ca^2+] due to pre-activated SOC channels were monitored for 15 min until intracellular Ca^2+ levels had declined into a steady-state. Finally, compounds were administered, and Ca^2+ signals were recorded for additional 10 min.
Inhibition of endogenous SOC in HEK293 cells was quantified employing the average Ca^2+ signal measured from 9.5-10 min post-administration. Zero percent inhibition (MAX) was defined as the Ca^2+ signal recorded from wells to which DMSO-only had been added instead of compound. Hundred percent inhibition (MIN) was defined as the signal obtained from wells in which cells haven't been treated with TG prior to Ca^2+ addition and to which DMSO-only had been added instead of compound. For routine IC50 determinations of compounds, 8 concentrations of a serial dilution (1:3.16) were tested, starting off from 10 μM. Reliable IC50's could consequently be determined only, if they were at least sub 2.5-3 μM.

T1 sequence (Q96D31 whole entry): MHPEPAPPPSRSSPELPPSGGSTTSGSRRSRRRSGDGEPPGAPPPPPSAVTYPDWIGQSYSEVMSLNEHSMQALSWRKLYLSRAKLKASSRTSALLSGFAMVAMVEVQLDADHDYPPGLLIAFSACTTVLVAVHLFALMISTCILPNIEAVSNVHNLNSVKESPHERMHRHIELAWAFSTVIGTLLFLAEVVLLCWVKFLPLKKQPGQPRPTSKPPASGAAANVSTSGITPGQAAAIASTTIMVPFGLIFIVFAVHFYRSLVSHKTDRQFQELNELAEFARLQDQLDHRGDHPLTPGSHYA

Row | Structure (SMILES) | inhibition at 10 µM
1 | Cc1sc(-c2ncco2)nc1N1CCc2[nH]c(-c3c(F)cccc3Cl)cc2C1 [Example 62, 2-[4-[2-(2-Chloro-6-fluoro-phenyl)-4,5,6,7-tetrahydro-1H-pyrrolo[3,2-c]pyridin-5-yl]-5-methyl-thiazol-2-yl]-oxazole] | > 70%
2 | COc1ncccc1-c1cc2c([nH]1)CCN(c1cnc(S(C)(=O)=O)cc1C)C2 [Example 98, 2-(2-Methoxy-pyridin-3-yl)-5-(4-methyl-6-methylsulfonyl-pyridin-3-yl)-4,5,6,7-tetrahydro-1H-pyrrolo[3,2-c]pyridine] | > 70%
3 | Cc1cc(C(=O)N(C)C)ccc1N1CCc2[nH]c(-c3c(F)cccc3F)cc2C1 [Example 81, 4-[2-(2,6-Difluoro-phenyl)-4,5,6,7-tetrahydro-1H-pyrrolo[3,2-c]pyridin-5-yl]-N,N,3-trimethyl-benzamide] | > 70%
4 | Cc1sccc1N1CCc2[nH]c(-c3c(F)cccc3F)cc2C1 [Example 55, 2-(2,6-Difluoro-phenyl)-5-(2-methyl-thiophen-3-yl)-4,5,6,7-tetrahydro-1H-pyrrolo[3,2-c]pyridine] | > 70%
5 | Cc1sc(C2CC2)nc1N1CCc2[nH]c(-c3c(F)cccc3F)cc2C1 [Example 56, 2-Cyclopropyl-4-[2-(2,6-difluoro-phenyl)-4,5,6,7-tetrahydro-1H-pyrrolo[3,2-c]pyridin-5-yl]-5-methyl-thiazole] | > 70%
6 | Cc1ccc(C#N)cc1N1CCc2[nH]c(-c3c(F)cccc3F)cc2C1 [Example 29, 3-[2-(2,6-Difluoro-phenyl)-4,5,6,7-tetrahydro-1H-pyrrolo[3,2-c]pyridin-5-yl]-4-methyl-benzonitrile] | 50 to 70%
7 | Cc1sc(C2CC2)nc1N1CCc2[nH]c(-c3c(F)cccc3Cl)cc2C1 [Example 61, 4-[2-(2-Chloro-6-fluoro-phenyl)-4,5,6,7-tetrahydro-1H-pyrrolo[3,2-c]pyridin-5-yl]-2-cyclopropyl-5-methyl-thiazole] | > 70%
8 | COc1cnc(C(F)(F)F)nc1N1CCc2[nH]c(-c3c(F)cccc3F)cc2C1 [Example 84, 2-(2,6-Difluoro-phenyl)-5-[5-methoxy-2-(trifluoromethyl)-pyrimidin-4-yl]-4,5,6,7-tetrahydro-1H-pyrrolo[3,2-c]pyridine] | 50 to 70%
9 | Cc1cc(N2CCc3[nH]c(-c4c(F)cccc4Cl)cc3C2)n(C)n1 [Example 63, 2-(2-Chloro-6-fluoro-phenyl)-5-(2,5-dimethyl-2H-pyrazol-3-yl)-4,5,6,7-tetrahydro-1H-pyrrolo[3,2-c]pyridine] | > 70%
10 | Cc1cc(S(C)(=O)=O)ncc1N1CCc2[nH]c(-c3snnc3C)cc2C1 [Example 89, 4-Methyl-5-[5-(4-methyl-6-methylsulfonyl-pyridin-3-yl)-4,5,6,7-tetrahydro-1H-pyrrolo[3,2-c]pyridin-2-yl]-[1,2,3]thiadiazole] | 50 to 70%
11 | Cc1sc(-c2cccnc2)nc1N1CCc2[nH]c(-c3c(F)cccc3F)c(CO)c2C1 [Example 85, [2-(2,6-Difluoro-phenyl)-5-(5-methyl-2-pyridin-3-yl-thiazol-4-yl)-4,5,6,7-tetrahydro-1H-pyrrolo[3,2-c]pyridin-3-yl]-methanol] | > 70%
12 | Cc1sc(-c2ncco2)nc1N1CCc2[nH]c(-c3c(F)cccc3F)cc2C1 [Example 57, 2-[4-[2-(2,6-Difluoro-phenyl)-4,5,6,7-tetrahydro-1H-pyrrolo[3,2-c]pyridin-5-yl]-5-methyl-thiazol-2-yl]-oxazole] | > 70%
13 | Cc1sc(-c2cccnc2)nc1N1CCc2[nH]c(-c3c(F)cccc3Cl)cc2C1 [Example 17, 4-[2-(2-Chloro-6-fluoro-phenyl)-4,5,6,7-tetrahydro-1H-pyrrolo[3,2-c]pyridin-5-yl]-5-methyl-2-pyridin-3-yl-thiazole] | > 70%
14 | Cc1cc(N2CCc3[nH]c(-c4c(F)cccc4F)cc3C2)n(C)n1 [Example 58, 2-(2,6-Difluoro-phenyl)-5-(2,5-dimethyl-2H-pyrazol-3-yl)-4,5,6,7-tetrahydro-1H-pyrrolo[3,2-c]pyridine] | > 70%
15 | Cc1sccc1N1CCc2[nH]c(-c3c(F)cccc3Cl)cc2C1 [Example 60, 2-(2-Chloro-6-fluoro-phenyl)-5-(2-methyl-thiophen-3-yl)-4,5,6,7-tetrahydro-1H-pyrrolo[3,2-c]pyridine] | > 70%
16 | CCn1nc(N2CCc3[nH]c(-c4c(F)cccc4F)cc3C2)cc1C1(C(F)(F)F)CC1 [Example 125, 2-(2,6-Difluoro-phenyl)-5-[1-ethyl-5-[1-(trifluoromethyl)-cyclopropyl]-1H-pyrazol-3-yl]-4,5,6,7-tetrahydro-1H-pyrrolo[3,2-c]pyridine] | > 70%

The remaining lines, values ahead:

Row | inhibition at 10 µM | Structure (SMILES)
17 | > 70% | Cc1sc(C2CC2)nc1N1CCc2[nH]c(-c3c(F)cccc3F)cc2C1=O [Example 48, 5-(2-Cyclopropyl-5-methyl-thiazol-4-yl)-2-(2,6-difluoro-phenyl)-1,5,6,7-tetrahydro-pyrrolo[3,2-c]pyridin-4-one]
18 | 50 to 70% | COc1cc(C)c(N2CCc3[nH]c(-c4c(F)cccc4F)cc3C2=O)cn1 [Example 39, 2-(2,6-Difluoro-phenyl)-5-(6-methoxy-4-methyl-pyridin-3-yl)-1,5,6,7-tetrahydro-pyrrolo[3,2-c]pyridin-4-one]
19 | > 70% | Cc1sccc1N1CCc2[nH]c(-c3c(F)cccc3F)cc2C1=O [Example 47, 2-(2,6-Difluoro-phenyl)-5-(2-methyl-thiophen-3-yl)-1,5,6,7-tetrahydro-pyrrolo[3,2-c]pyridin-4-one]
20 | > 70% | Cc1sc(C2CC2)nc1N1CCc2[nH]c(-c3c(F)cccc3Cl)cc2C1=O [Example 52, 2-(2-Chloro-6-fluoro-phenyl)-5-(2-cyclopropyl-5-methyl-thiazol-4-yl)-1,5,6,7-tetrahydro-pyrrolo[3,2-c]pyridin-4-one]
21 | > 70% | Cc1cc(Cl)ncc1N1CCc2[nH]c(-c3c(F)cccc3Cl)cc2C1=O [Example 45, 2-(2-Chloro-6-fluoro-phenyl)-5-(6-chloro-4-methyl-pyridin-3-yl)-1,5,6,7-tetrahydro-pyrrolo[3,2-c]pyridin-4-one]
22 | 50 to 70% | Cc1cc(Cl)ncc1N1CCc2[nH]c(-c3ccc(F)cc3F)cc2C1=O [Example 44, 5-(6-Chloro-4-methyl-pyridin-3-yl)-2-(2,4-difluoro-phenyl)-1,5,6,7-tetrahydro-pyrrolo[3,2-c]pyridin-4-one]
23 | 50 to 70% | Cc1sc(-c2cccnc2)nc1N1CCc2[nH]c(-c3ccc(Cl)nc3)cc2C1=O [Example 43, 2-(6-Chloro-pyridin-3-yl)-5-(5-methyl-2-pyridin-3-yl-thiazol-4-yl)-1,5,6,7-tetrahydro-pyrrolo[3,2-c]pyridin-4-one]
24 | 50 to 70% | Cc1ccc(Cl)cc1N1CCc2[nH]c(-c3c(F)cccc3Cl)cc2C1=O [Example 50, 2-(2-Chloro-6-fluoro-phenyl)-5-(5-chloro-2-methyl-phenyl)-1,5,6,7-tetrahydro-pyrrolo[3,2-c]pyridin-4-one]
25 | > 70% | Cc1cc(Cl)ncc1N1CCc2[nH]c(-c3c(F)cccc3F)cc2C1=O [Example 38, 5-(6-Chloro-4-methyl-pyridin-3-yl)-2-(2,6-difluoro-phenyl)-1,5,6,7-tetrahydro-pyrrolo[3,2-c]pyridin-4-one]
26 | > 70% | Cc1sc(-c2ncco2)nc1N1CCc2[nH]c(-c3c(F)cccc3F)cc2C1=O [Example 54, 2-(2,6-Difluoro-phenyl)-5-(5-methyl-2-oxazol-2-yl-thiazol-4-yl)-1,5,6,7-tetrahydro-pyrrolo[3,2-c]pyridin-4-one]
27 | 50 to 70% | Cc1sc(-c2ccccn2)nc1N1CCc2[nH]c(-c3c(F)cccc3F)cc2C1=O [Example 5, 2-(2,6-Difluoro-phenyl)-5-(5-methyl-2-pyridin-2-yl-thiazol-4-yl)-1,5,6,7-tetrahydro-pyrrolo[3,2-c]pyridin-4-one]
28 | 50 to 70% | O=C1c2cc(-c3c(F)cccc3F)[nH]c2CCN1c1c(F)cccc1F [Example 46, 2,5-Bis(2,6-difluoro-phenyl)-1,5,6,7-tetrahydro-pyrrolo[3,2-c]pyridin-4-one]
29 | 50 to 70% | COc1cc(C#N)ccc1N1CCc2[nH]c(-c3c(F)cccc3Cl)cc2C1=O [Example 41, 4-[2-(2-Chloro-6-fluoro-phenyl)-4-oxo-1,5,6,7-tetrahydro-pyrrolo[3,2-c]pyridin-5-yl]-3-methoxy-benzonitrile]
